Measurements taken from patent publication US20090192192A1, “INHIBITORS OF BIOFILM FORMATION OF GRAM-POSITIVE AND GRAM-NEGATIVE BACTERIA” (priority 2007, published 2009).

test system: Pseudomonas aeruginosa PAO1; experiment: MBEC assay, biofilm formation of P. aeruginosa PAO1; type: cell-based; conditions: compound concentration 100 μM, class symbols
Method: The compound to be tested was dissolved in DMSO to obtain a concentration that was 100 times that of the final concentration required (1 mM for the 10 μM assay and 10 mM for the 100 μM assay). 1.5 μL of the above solution was placed into each well of a 96 well plate (final volume in each well=150 μL, final DMSO concentration of 1% (v/v)).
To grow the organism and form a biofilm, a cryogenic stock of the test organism (at −70° C.) was used. A first sub-culture was streaked out onto TSA (tryptic soy agar), upon which the plate was incubated at 35±2° C. for 24 hours and stored wrapped in parafilm at 4° C. afterwards. From this first sub-culture, a second sub-culture was streaked out onto TSA. The plate was incubated at 35±2° C. for 24 hours. The second sub-culture was used within 24 hours starting from the time it was first removed from incubation. Using the second sub-culture an inoculum in 3 mL sterile water that matches a 0.5 McFarland Standard (1.5×10^8 cells per mL) was created in a glass test tube using a sterile cotton swab. 2.2 mL of this solution was diluted in 22 mL 100% TSB (tryptic soy broth) medium to a cell density of approximately […]. The diluted organism was inverted 3-5 times to achieve uniform mixing of the organism. One sample (100 μl) of the diluted organism was used for an inoculum check by serially diluting and spot plating on TSA.
To prepare a challenge plate, […] of the diluted organism was added to each well of a 96 well plate except the sterility control wells. The test compounds were added to the wells to make up final concentrations of 10 μM and […] (1.5 μL/well) in the designated location in the test plate. 128.5 μL of 100% universal neutralizer (1% Tween 80 in Cation Adjusted Mueller Hinton Broth, CAMHB) was placed in each of the wells. 130 μL of media was added to the growth control wells. 128.5 μL of media+1.5 μL of DMSO were added to a second set of growth control wells. 150 μL of media was added to the sterility controls. Each sample was run in triplicate. The plate was covered by a lid with a peg per well and wrapped in parafilm and placed on a shaker in a humidified incubator (GeneVac) at 35±+2° C. for 24 hours set at 110 rpm.
Rinse plate(s) of 0.9% saline (200 μL per well) were prepared in a sterile 96 well microtitre plate. Lid-associated pegs were rinsed in 0.9% saline for approximately 1-2 minutes. The peg lid was transferred to the recovery media (1.0% Tween 80 in CAMHB) then sonicated for 30 minutes to dislodge surviving biofilm. Following sonication, 100 μL from each well of the 96 well plate was placed into the first 12 wells of the first row of a 96 well microtiter plate. 180 μl of 0.9% sterile saline was placed in the remaining rows. A serial dilution (10^0-10^7) was prepared by moving 20 μl down each of the 8 rows. 20 μl from each well was removed and spot plated on a prepared TSA. In the remaining recovery plate, 100 μl of fresh growth media (1.0% Tween 80 in CAMHB) was placed in each well to replace the amount removed. The recovery plate was covered with a regular lid and incubated at 35±2° C. for 24 hours and read visually to confirm antimicrobial activity of the test compounds.
The compounds of the present disclosure have been tested regarding their efficiency to inhibit biofilm formation of Staphylococcus aureus U of C#18 (MRSA), Staphylococcus aureus 456 (MRSA), Staphylococcus epidermidis RP62A, and Pseudomonas aeruginosa PAO1.

Row | SMILES | inhibition at 100 µM
1 | CCCCCCCCCOCC(=O)Nc1cc(-c2ccccc2)nn1C [Example 108, N-(1-methyl-3-phenylpyrazol-5-yl)-2-(nonyloxy)acetamide] | > 50%
2 | CCCCCCCCCOCC(=O)Nc1cc(C(C)(C)C)on1 [Example 109, N-(5-tert-butylisoxazol-3-yl)-2-(nonyloxy)acetamide] | 20 to 50%
3 | CCCCCCCCCOCC(=O)Nc1nnc(-c2ccccc2)s1 [Example 110, 2-(nonyloxy)-N-(5-phenyl-1,3,4-thiadiazol-2-yl)acetamide] | < 20%
4 | CCCCCCCCCOCC(=O)N[C@H]1CCOC1=O [Example 111, N-(2-nonyloxyacetyl)-L-homoserinelactone] | < 20%
5 | CCCCCCCCOCCC(=O)N[C@H]1CCOC1=O [Example 112, N-(3-octyloxypropanoyl)-L-homoserinelactone] | < 20%
6 | CCCCCCCCOCCC(=O)N[C@@H](C)c1ccccc1 [Example 113, (S)-3-(octyloxy)-N-(1-phenylethyl)propanamide] | > 50%
7 | CCCCCCCCOCCC(=O)Nc1cc(C)nn1C [Example 114, N-(1,3-dimethylpyrazol-5-yl)-3-(octyloxy)propanamide] | 20 to 50%
8 | CCCCCCCCOCCC(=O)Nc1cc(C2CC2)nn1C [Example 115, N-(3-cyclopropyl-1-methylpyrazol-5-yl)-3-(octyloxy)propanamide] | > 50%
9 | CCCCCCCCOCCC(=O)Nc1cc(C(C)(C)C)nn1C [Example 116, N-(3-tert-butyl-1-methylpyrazol-5-yl)-3-(octyloxy)propanamide] | > 50%
10 | CCCCCCCCOCCC(=O)Nc1cc(-c2ccccc2)nn1C [Example 117, N-(1-methyl-3-phenylpyrazol-5-yl)-3-(octyloxy)propanamide] | > 50%
11 | CCCCCCCCOCCC(=O)Nc1nnc(-c2ccccc2)s1 [Example 118, 3-(octyloxy)-N-(5-phenyl-1,3,4-thiadiazol-2-yl)propanamide] | < 20%
12 | CCCCOCCOCC(=O)N(C)c1ccc(F)cc1 [Example 119, 2-(2-butoxyethoxy)-N-(4-fluorophenyl)-N-methylacetamide] | < 20%
13 | CCCCOCCOCC(=O)Nc1ccc(F)cc1C(F)(F)F [Example 120, 2-(2-butoxyethoxy)-N-(4-fluoro-2-(trifluoromethyl)phenyl)acetamide] | 20 to 50%
14 | CCCCOCCOCC(=O)N[C@@H](C)c1ccccc1 [Example 121, (S)-2-(2-butoxyethoxy)-N-(1-phenylethyl)acetamide] | < 20%
15 | CCCCOCCOCC(=O)Nc1cc(C)nn1C [Example 122, 2-(2-butoxyethoxy)-N-(1,3-dimethylpyrazol-5-yl)acetamide] | < 20%
16 | CCCCOCCOCC(=O)Nc1cc(C)ns1 [Example 123, 2-(2-butoxyethoxy)-N-(3-methylisothiazol-5-yl)acetamide] | < 20%
17 | CCCCOCCOCC(=O)Nc1cc(-c2ccccc2)nn1C [Example 124, 2-(2-butoxyethoxy)-N-(1-methyl-3-phenylpyrazol-5-yl)acetamide] | 20 to 50%
18 | COCCOCCOCC(=O)N(C)c1ccc(F)cc1 [Example 125, N-(4-fluorophenyl)-2-(2-(2-methoxyethoxy)ethoxy)-N-methylacetamide] | < 20%
19 | COCCOCCOCC(=O)Nc1ccc(F)cc1C(F)(F)F [Example 126, N-(4-fluoro-2-(trifluoromethyl)phenyl)-2-(2-(2-methoxyethoxy)ethoxy)acetamide] | < 20%
20 | COCCOCCOCC(=O)N[C@@H](C)c1ccccc1 [Example 127, (S)-2-(2-(2-methoxyethoxy)ethoxy)-N-(1-phenylethyl)acetamide] | < 20%
21 | COCCOCCOCC(=O)Nc1cc(C)nn1C [Example 128, N-(1,3-dimethylpyrazol-5-yl)-2-(2-(2-methoxyethoxy)ethoxy)acetamide] | < 20%

Row | SMILES | inhibition at 100 µM
22 | COCCOCCOCC(=O)Nc1cc(C)ns1 [Example 129, 2-(2-(2-methoxyethoxy)ethoxy)-N-(3-methylisothiazol-5-yl)acetamide] | < 20%
23 | CCCCCCCCCCCC(=O)N1CCCC(C(N)=O)C1 (centres unmarked) [Example 130, 1-dodecanoylpiperidine-3-carboxamide] | > 50%
24 | CCCCCCCCCCCC(=O)N1CCC(C(N)=O)CC1 [Example 131, 1-dodecanoylpiperidine-4-carboxamide] | 20 to 50%
25 | CCCCCCCCCCCC(=O)N1CCCC(C(=O)NC)C1 (centres unmarked) [Example 132, 1-dodecanoyl-N-methylpiperidine-3-carboxamide] | > 50%
26 | CCCCCCCCCCCC(=O)N1CCCC(C(=O)NCC)C1 (centres unmarked) [Example 133, 1-dodecanoyl-N-ethylpiperidine-3-carboxamide] | > 50%
27 | CCCCCCCCCCCC(=O)N1CCCC(C(=O)NCC(C)C)C1 (centres unmarked) [Example 134, 1-dodecanoyl-N-isobutylpiperidine-3-carboxamide] | 20 to 50%
28 | CCCCCCCCCC(=O)N1CCCC(C(=O)N(CC)CC)C1 (centres unmarked) [Example 135, 1-decanoyl-N,N-diethylpiperidine-3-carboxamide] | > 50%
29 | CCCCCCCCCCCC(=O)N1CCCC(C(=O)N2CCCC2)C1 (centres unmarked) [Example 136, 1-(3-(pyrrolidine-1-carbonyl)piperidin-1-yl)dodecan-1-one] | < 20%
30 | CCCCCCCCOCCC(=O)N1CCCC(C(=O)N(CC)CC)C1 (centres unmarked) [Example 137, N,N-diethyl-1-(3-(octyloxy)propanoyl)piperidine-3-carboxamide] | 20 to 50%
31 | CCCCCCCN(C)CCCC(=O)N1CCCC(C(=O)N(CC)CC)C1 (centres unmarked) [Example 138, N,N-diethyl-1-(4-(heptyl(methyl)amino)butanoyl)piperidine-3-carboxamide] | < 20%
32 | CCN(CC)C(=O)C1CCCN(C(=O)CCCCCCN(C)CCN(C)C)C1 (centres unmarked) [Example 139, 1-(7-((2-(dimethylamino)ethyl)(methyl)amino)heptanoyl)-N,N-diethylpiperidine-3-carboxamide] | < 20%
33 | CCN(CC)C(=O)C1CCCN(C(=O)CCCCCCN2CCN(C)CC2)C1 (centres unmarked) [Example 140, N,N-diethyl-1-(7-(4-methylpiperazin-1-yl)heptanoyl)piperidine-3-carboxamide] | < 20%
34 | CCN(CC)C(=O)C1CCCN(C(=O)CCCCCCCCCCCSC)C1 (centres unmarked) [Example 141, N,N-diethyl-1-(12-(methylthio)dodecanoyl)piperidine-3-carboxamide] | > 50%
35 | CCN(CC)C(=O)C1CCCN(C(=O)CCCCCCCCCCCS(C)(=O)=O)C1 (centres unmarked) [Example 142, N,N-diethyl-1-(12-(methylsulfonyl)dodecanoyl)piperidine-3-carboxamide] | 20 to 50%
36 | CCN(CC)C(=O)C1CCCN(C(=O)CCCCCCCCCNS(C)(=O)=O)C1 (centres unmarked) [Example 143, N,N-diethyl-1-(10-(methylsulfonamido)decanoyl)piperidine-3-carboxamide] | 20 to 50%
37 | CCCCCCCCNC(=O)CC(=O)N1CCCC(C(=O)N(CC)CC)C1 (centres unmarked) [Example 144, N,N-diethyl-1-(3-(octylamino)-3-oxopropanoyl)piperidine-3-carboxamide] | 20 to 50%
38 | CCCCCCCCCCCC(=O)N1CCC(C(N)=O)C1 (centres unmarked) [Example 145, 1-dodecanoylpyrrolidine-3-carboxamide] | > 50%
39 | CCCCCCCCCCCC(=O)N1CCC(C(=O)NC)C1 (centres unmarked) [Example 146, 1-dodecanoyl-N-methylpyrrolidine-3-carboxamide] | > 50%
40 | CCCCCCCCCCCC(=O)N1CCC(C(=O)N(C)C)C1 (centres unmarked) [Example 147, 1-dodecanoyl-N,N-dimethylpyrrolidine-3-carboxamide] | > 50%
41 | CCCCCCCCCCCC(=O)N1CCC(C(=O)N(CC)CC)C1 (centres unmarked) [Example 148, 1-dodecanoyl-N,N-diethylpyrrolidine-3-carboxamide] | > 50%
